The record followed here is patent US20260364190A1, “ANTIBODY DRUG CONJUGATE PLATFORMS” (BEONE MEDICINES I GMBH, priority 2023, published 2026).

One assay relates to A375 cells. Put plainly: Payload cellular killing in A375 cancer line. Format: cell-based, human. The note with it: Cell Titer-Glo. As for the experimental part:
A375 (ATCC, CRL-1619). […] The base medium for A375 is DMEM, high glucose, GlutaMAX™ Supplement (Gibco, 10566024). […] The cell line was grown in a humidified 5% CO2 atmosphere at 37 °C, and was regularly tested for the presence of mycoplasma with MycoAlert™ PLUS Mycoplasma Detection Kit (Lonza, LT07-710).
(§1) Payload cellular killing was assessed in A375 and Calu-6 cancer lines. Cells were seeded (A375 (1E3/well) or Calu-6 (2E3/well)) into a 96-well plate (Greiner: 655090), at 100 μl/well and incubated at 37 °C, 5% CO2, overnight. Fresh growth medium was added containing varying concentrations of compounds, 50 μl/well, and incubated at 37 °C, 5% CO2, for 6 days. The cell viability was detected by Cell Titer-Glo (Promega, G7573). 70 μL of CellTiter-Glo® Reagent was added to each well. The plates were allowed to incubate at room temperature for 10 minutes to stabilize the luminescent signal. The plates were analyzed with a microplate reader.
On the technique in general: Cellular ATP, detected with luciferase, serves as a proxy for viable cell number.

The test system of a further assay is Calu-6 cells. Put plainly: Payload cellular killing in Calu-6 cancer line. The format is cell-based. The following applies: 6 days, Cell Titer-Glo. Here is the method:
Calu-6 (ATCC, HTB-56). […] The base medium for Calu-6 is Eagle's Minimum Essential Medium (ATCC, 30-2003). […] The cell line was grown in a humidified 5% CO2 atmosphere at 37 °C, and was regularly tested for the presence of mycoplasma with MycoAlert™ PLUS Mycoplasma Detection Kit (Lonza, LT07-710).
as §1

The EC50 is the concentration giving half of the maximal effect. Higher therefore signals weaker potency. As to `CC[C@@]1(O)C(=O)OCc2c1cc1n(c2=O)Cc2c-1nc1cc3c(c4c1c2[C@@H](NC(=O)C(C)(F)CO)CC4)OCO3` (stereo partly drawn) [P9, N-((1S,10S)-10-ethyl-10-hydroxy-11,14-dioxo-2,3,10,11,14,16-hexahydro-1H,13H-benzo[de][1,3]dioxolo[4,5-g]pyrano[3′,4′:67]indolizino[1,2-b]quinolin-1-yl)-2-fluoro-3-hydroxy-2-methylpropanamide], in the assay on A375 cells (6 days), the concentration for a half-maximal effect (EC50) was found to be 2.1 nM and the “Emax (%)” value was found to be 100.0%. Further, in the assay on Calu-6 cells, a half-maximal effect (EC50) was put at 0.9 nM and the “Emax (%)” value came out at 98.3%.

For `CC[C@@]1(O)C(=O)OCc2c1cc1n(c2=O)Cc2c-1nc1cc(F)c(C)c3c1c2C(CCCO)CC3` (stereo partly drawn) [P3, (9S)-9-ethyl-5-fluoro-9-hydroxy-1-(3-hydroxypropyl)-4-methyl-1,2,3,9,12,15-hexahydro-10H,13H-benzo[de]pyrano[3′,4′:6,7]indolizino[1,2-b]quinoline-10,13-dione], the “Emax (%)” value in the assay with A375 cells (6 days) worked out at 100.0%; with Calu-6 cells it was 99.2%. Moreover, the EC50 with Calu-6 cells (Homo sapiens) was 0.2 nM.

In the case of `CC[C@@]1(O)C(=O)OCc2c1cc1n(c2=O)Cc2c-1nc1cc(F)c(C)c3c1c2C(CCO)CC3` (stereo partly drawn) [P5, (9S)-9-ethyl-5-fluoro-9-hydroxy-1-(2-hydroxyethyl)-4-methyl-1,2,3,9,12,15-hexahydro-10H,13H-benzo[de]pyrano[3′,4′:6,7]indolizino[1,2-b]quinoline-10,13-dione], the entries for the “Emax (%)” value with A375 cells (6 days) and in the assay on Calu-6 cells were 100.0% and 98.1%, respectively.

The term Emax denotes the greatest response seen or fitted, relative to the assay's reference. Consider `CC[C@@]1(O)C(=O)OCc2c1cc1n(c2=O)Cc2c-1nc1cc(F)c(C)c3c1c2C(CN(C)CCO)CC3` (stereo partly drawn) [P11, (9S)-9-ethyl-5-fluoro-9-hydroxy-1-(((2-hydroxyethyl)(methyl)amino)methyl)-4-methyl-1,2,3,9,12,15-hexahydro-10H,13H-benzo[de]pyrano[3′,4′:6,7]indolizino[1,2-b]quinoline-10,13-dione], for which, in the assay on A375 cells (Homo sapiens, A-375, 6 days), a half-maximal effect (EC50) was put at 0.8 nM. In the assay with Calu-6 cells (Homo sapiens), this molecule registered an Emax of 98%.

As for `CC[C@@]1(O)C(=O)OCc2c1cc1n(c2=O)Cc2c-1nc1cc3c(c4c1c2[C@@H](NC(=O)OCCO)CC4)OCO3` [P10, 2-hydroxyethyl ((1S,10S)-10-ethyl-10-hydroxy-11,14-dioxo-2,3,10,11,14,16-hexahydro-1H,13H-benzo[de][1,3]dioxolo[4,5-g]pyrano[3′,4′:6,7]indolizino[1,2-b]quinolin-1-yl)carbamate], in the assay on A375 cells (Homo sapiens, A-375, 6 days), the EC50 was 2.2 nM and the Emax was determined as 100%. For the same molecule, in the assay on Calu-6 cells (Homo sapiens), the response was half-maximal at 0.7 nM (EC50) and the Emax amounted to 97.4%.
